Test results published in ChEMBL document CHEMBL5506025, “Discovery of LLC0424 as a Potent and Selective in Vivo NSD2 PROTAC Degrader” (J Med Chem, 2024).
The source made the active and inactive calls.

Key:
[1] = system: SEM cells; experiment: Downregulation of TNFAIP3 gene expression in human SEM cells measured after 14 days by RNA sequencing assay; format: functional, cell-based; conditions: time 14.0 day
[2] = target: T1, Protein cereblon/Histone-lysine N-methyltransferase NSD2 (Homo sapiens) (UniProt O96028+Q96SW2); experiment: PROTAC activity at CRBN/NSD2 in human RPMI 8402 cells assessed as decrease in NSD2 level at 2 uM measured after 12 hrs by TMT-labeled quantitative proteomics assay; format: cell-based
T1 sequence (O96028 whole entry, looked up): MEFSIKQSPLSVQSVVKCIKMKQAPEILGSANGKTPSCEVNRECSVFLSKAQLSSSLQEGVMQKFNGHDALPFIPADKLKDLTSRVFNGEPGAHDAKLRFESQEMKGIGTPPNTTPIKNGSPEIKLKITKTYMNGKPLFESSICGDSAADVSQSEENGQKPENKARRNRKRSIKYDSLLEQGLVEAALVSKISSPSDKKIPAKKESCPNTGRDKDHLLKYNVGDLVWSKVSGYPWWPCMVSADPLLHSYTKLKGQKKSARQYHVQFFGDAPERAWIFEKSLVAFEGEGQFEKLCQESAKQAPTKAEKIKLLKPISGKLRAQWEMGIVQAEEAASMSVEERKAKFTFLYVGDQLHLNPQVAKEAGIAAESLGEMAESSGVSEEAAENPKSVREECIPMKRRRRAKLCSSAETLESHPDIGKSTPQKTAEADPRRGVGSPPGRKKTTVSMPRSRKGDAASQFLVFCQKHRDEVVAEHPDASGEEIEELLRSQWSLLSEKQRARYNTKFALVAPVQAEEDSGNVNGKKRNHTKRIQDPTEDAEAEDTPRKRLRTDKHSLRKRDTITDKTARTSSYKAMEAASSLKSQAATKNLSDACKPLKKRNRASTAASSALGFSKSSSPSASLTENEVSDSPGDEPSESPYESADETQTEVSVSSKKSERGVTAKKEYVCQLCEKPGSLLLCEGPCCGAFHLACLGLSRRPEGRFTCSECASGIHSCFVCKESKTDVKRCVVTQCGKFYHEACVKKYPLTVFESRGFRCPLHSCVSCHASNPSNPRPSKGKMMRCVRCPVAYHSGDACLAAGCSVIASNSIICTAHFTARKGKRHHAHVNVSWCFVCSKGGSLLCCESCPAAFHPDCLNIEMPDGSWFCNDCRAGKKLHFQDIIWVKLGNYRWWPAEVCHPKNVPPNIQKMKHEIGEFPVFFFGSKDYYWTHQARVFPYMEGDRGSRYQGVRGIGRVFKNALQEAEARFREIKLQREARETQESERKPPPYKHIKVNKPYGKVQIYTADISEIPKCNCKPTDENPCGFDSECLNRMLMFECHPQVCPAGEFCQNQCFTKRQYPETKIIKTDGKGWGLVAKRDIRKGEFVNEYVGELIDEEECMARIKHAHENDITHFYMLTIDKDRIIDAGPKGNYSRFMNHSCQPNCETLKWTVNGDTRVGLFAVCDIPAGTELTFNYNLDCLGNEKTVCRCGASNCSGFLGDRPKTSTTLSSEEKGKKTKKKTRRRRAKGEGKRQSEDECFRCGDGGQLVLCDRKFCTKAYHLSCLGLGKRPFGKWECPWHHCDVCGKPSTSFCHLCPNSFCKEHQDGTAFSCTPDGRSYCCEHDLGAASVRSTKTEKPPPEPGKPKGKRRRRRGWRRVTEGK
T1 sequence (Q96SW2 whole entry, looked up): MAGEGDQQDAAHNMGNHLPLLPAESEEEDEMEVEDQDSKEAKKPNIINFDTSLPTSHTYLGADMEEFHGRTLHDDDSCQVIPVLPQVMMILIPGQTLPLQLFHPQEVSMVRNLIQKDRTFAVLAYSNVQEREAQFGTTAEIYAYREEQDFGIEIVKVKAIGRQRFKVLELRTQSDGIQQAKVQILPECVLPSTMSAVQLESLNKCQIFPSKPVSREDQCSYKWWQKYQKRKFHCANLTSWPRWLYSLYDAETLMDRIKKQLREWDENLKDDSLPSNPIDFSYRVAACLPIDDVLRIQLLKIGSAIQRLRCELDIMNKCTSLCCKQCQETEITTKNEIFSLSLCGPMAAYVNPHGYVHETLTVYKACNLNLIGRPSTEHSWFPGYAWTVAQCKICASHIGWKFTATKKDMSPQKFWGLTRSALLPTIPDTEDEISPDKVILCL

[3] = system: RPMI 8402; experiment: Inhibition of colony formation in human RPMI 8402 cells at 2 uM administered every three days for 30 days by iodonitrotetrazolium chloride staining based microscopy analysis; format: functional, cell-based; conditions: time 30.0 day
[4] = target: T1, Protein cereblon/Histone-lysine N-methyltransferase NSD2 (Homo sapiens); experiment: In vivo PROTAC activity at CRBN/NSD2 in SCID mouse xenografted with human 22Rv1 cells assessed as downregulation of NSD2 level at 60 mg/kg, ip for 5 days by Western blot analysis; format: functional, organism-based; conditions: CWR22R, time 5.0 day
[5] = target: Protein cereblon/Histone-lysine N-methyltransferase NSD3 (Homo sapiens) (UniProt Q9BZ95+Q96SW2); experiment: PROTAC activity at CRBN/NSD3 in human SEM cells assessed as decrease in NSD3 level at 2 uM measured upto 8 hrs by immunoblot analysis; format: cell-based
[6] = target: T1, Protein cereblon/Histone-lysine N-methyltransferase NSD2 (Homo sapiens); experiment: PROTAC activity at CRBN/NSD2 in human RPMI 8402 cells assessed as induction of NSD2 degradation at 2 uM measured after 4 to 8 hrs hrs by immunoblot analysis; format: cell-based; conditions: time 4-8 hrs
[7] = target: T2, Protein cereblon/Eukaryotic peptide chain release factor GTP-binding subunit ERF3A (Homo sapiens) (UniProt Q96SW2+P15170); experiment: PROTAC activity at CRBN/GSPT1 in human VCaP cells assessed as decrease in GSPT1 level at 2 uM measured upto 8 hrs by immunoblot analysis; format: cell-based
T2 sequence (P15170 whole entry, looked up): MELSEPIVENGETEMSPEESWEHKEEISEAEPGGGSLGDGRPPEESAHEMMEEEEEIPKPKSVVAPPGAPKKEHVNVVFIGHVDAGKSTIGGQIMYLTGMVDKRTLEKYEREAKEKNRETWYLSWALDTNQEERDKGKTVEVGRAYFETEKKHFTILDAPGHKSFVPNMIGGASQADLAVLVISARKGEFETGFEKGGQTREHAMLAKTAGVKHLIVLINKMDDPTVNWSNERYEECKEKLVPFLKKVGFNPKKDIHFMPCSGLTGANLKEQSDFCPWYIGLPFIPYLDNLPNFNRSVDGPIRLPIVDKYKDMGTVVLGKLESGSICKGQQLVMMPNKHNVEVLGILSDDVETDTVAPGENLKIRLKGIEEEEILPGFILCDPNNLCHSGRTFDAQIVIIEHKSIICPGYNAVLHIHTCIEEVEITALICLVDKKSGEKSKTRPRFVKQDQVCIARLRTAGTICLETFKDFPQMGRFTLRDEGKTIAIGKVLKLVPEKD
T2 sequence (Q96SW2 whole entry, looked up): as the sequence (Q96SW2 whole entry, looked up) above

[8] = target: T1, Protein cereblon/Histone-lysine N-methyltransferase NSD2 (Homo sapiens); experiment: PROTAC activity at CRBN/NSD2 in human RPMI 8402 cells assessed as induction of NSD2 degradation at 2 uM pretreated with UNC6934 for 2 hrs followed by compound addition and measured after 6 to 12 hrs by Western blot analysis; format: cell-based; conditions: time 6-12 hrs
[9] = target: T2, Protein cereblon/Eukaryotic peptide chain release factor GTP-binding subunit ERF3A (Homo sapiens); experiment: PROTAC activity at CRBN/GSPT1 in human SEM cells assessed as decrease in GSPT1 level at 2 uM measured upto 8 hrs by immunoblot analysis; format: cell-based
[10] = target: T1, Protein cereblon/Histone-lysine N-methyltransferase NSD2 (Homo sapiens); experiment: PROTAC activity at CRBN/NSD2 in human RPMI 8402 cells assessed as induction of NSD2 degradation at 2 uM measured after 12 to 24 hrs by immunoblot analysis; format: cell-based; conditions: time 12-24 hrs
[11] = target: Protein cereblon/Zinc finger protein Aiolos (Homo sapiens) (UniProt Q96SW2+Q9UKT9); experiment: PROTAC activity at CRBN/IKZF3 in human SEM cells assessed as decrease in IKZF3 level at 2 uM measured upto 8 hrs by immunoblot analysis; format: cell-based
[12] = target: T1, Protein cereblon/Histone-lysine N-methyltransferase NSD2 (Homo sapiens); experiment: In vivo PROTAC activity at CRBN/NSD2 in SCID mouse xenografted with human 22Rv1 cells assessed as downregulation of NSD2 level at 60 mg/kg, iv for 5 days by Western blot analysis; format: functional, organism-based; conditions: CWR22R, time 5.0 day
[13] = target: T1, Protein cereblon/Histone-lysine N-methyltransferase NSD2 (Homo sapiens); experiment: PROTAC activity at CRBN/NSD2 in human RPMI 8402 cells assessed as induction of NSD2 degradation at 2 uM pretreated with MLN4924 for 2 hrs followed by compound addition and measured after 6 to 12 hrs by Western blot analysis; format: cell-based; conditions: time 6-12 hrs
[14] = target: Cereblon/Casein kinase I alpha (Homo sapiens) (UniProt P48729+Q96SW2); experiment: PROTAC activity at CRBN/CK1alpha in human SEM cells assessed as decrease in CK1alpha level at 2 uM measured upto 8 hrs by immunoblot analysis; format: cell-based
[15] = target: T1, Protein cereblon/Histone-lysine N-methyltransferase NSD2 (Homo sapiens); experiment: PROTAC activity at CRBN/NSD2 in human SEM cells assessed as induction of NSD2 degradation at 2 uM measured after 12 to 24 hrs by immunoblot analysis; format: cell-based; conditions: time 12-24 hrs
[16] = target: T2, Protein cereblon/Eukaryotic peptide chain release factor GTP-binding subunit ERF3A (Homo sapiens); experiment: PROTAC activity at CRBN/GSPT1 in human SEM cells assessed as decrease in GSPT1 level at 2 uM measured after 12 hrs by immunoblot analysis; format: cell-based
[17] = target: T1, Protein cereblon/Histone-lysine N-methyltransferase NSD2 (Homo sapiens); experiment: In vivo PROTAC activity at CRBN/NSD2 in SCID mouse xenografted with human SEM cells assessed as downregulation of NSD2 level at 60 mg/kg, ip for 5 days by immunohistochemical analysis; format: functional, organism-based; conditions: time 5.0 day
[18] = system: SEM cells; experiment: Downregulation of CD38 gene expression in human SEM cells measured after 14 days by RNA sequencing assay; format: functional, cell-based; conditions: time 14.0 day
[19] = target: T1, Protein cereblon/Histone-lysine N-methyltransferase NSD2 (Homo sapiens); experiment: PROTAC activity at CRBN/NSD2 in human SEM cells assessed as induction of NSD2 degradation at 2 uM measured after 4 to 8 hrs hrs by immunoblot analysis; format: cell-based; conditions: time 4-8 hrs
[20] = system: SEM cells; experiment: Downregulation of CD9 gene expression in human SEM cells measured after 14 days by RNA sequencing assay; format: functional, cell-based; conditions: time 14.0 day
[21] = target: T1, Protein cereblon/Histone-lysine N-methyltransferase NSD2 (Homo sapiens); experiment: PROTAC activity at CRBN/NSD2 in human VCaP cells assessed as decrease in NSD2 level at 2 uM measured after 6 hrs by TMT-labeled quantitative proteomics assay; format: cell-based
[22] = target: T1, Protein cereblon/Histone-lysine N-methyltransferase NSD2 (Homo sapiens); experiment: In vivo PROTAC activity at CRBN/NSD2 in SCID mouse xenografted with human 22Rv1 cells assessed as downregulation of NSD2 level at 60 mg/kg, ip for 5 days by immunohistochemical analysis; format: functional, organism-based; conditions: CWR22R, time 5.0 day
[23] = target: T1, Protein cereblon/Histone-lysine N-methyltransferase NSD2 (Homo sapiens); experiment: PROTAC activity at CRBN/NSD2 in human SEM cells assessed as induction of NSD2 degradation at 0.5 to 2 uM measured after 24 hrs by immunoblot analysis; format: cell-based; conditions: dose 0.5-2 µM
[24] = target: Protein cereblon/Histone-lysine N-methyltransferase, H3 lysine-36 specific (Homo sapiens) (UniProt Q96L73+Q96SW2); experiment: PROTAC activity at CRBN/NSD1 in human SEM cells assessed as decrease in NSD1 level at 2 uM measured upto 8 hrs by immunoblot analysis; format: cell-based
Sequence of Protein cereblon/Histone-lysine N-methyltransferase, H3 lysine-36 specific (Homo sapiens) (Q96L73 whole entry, looked up): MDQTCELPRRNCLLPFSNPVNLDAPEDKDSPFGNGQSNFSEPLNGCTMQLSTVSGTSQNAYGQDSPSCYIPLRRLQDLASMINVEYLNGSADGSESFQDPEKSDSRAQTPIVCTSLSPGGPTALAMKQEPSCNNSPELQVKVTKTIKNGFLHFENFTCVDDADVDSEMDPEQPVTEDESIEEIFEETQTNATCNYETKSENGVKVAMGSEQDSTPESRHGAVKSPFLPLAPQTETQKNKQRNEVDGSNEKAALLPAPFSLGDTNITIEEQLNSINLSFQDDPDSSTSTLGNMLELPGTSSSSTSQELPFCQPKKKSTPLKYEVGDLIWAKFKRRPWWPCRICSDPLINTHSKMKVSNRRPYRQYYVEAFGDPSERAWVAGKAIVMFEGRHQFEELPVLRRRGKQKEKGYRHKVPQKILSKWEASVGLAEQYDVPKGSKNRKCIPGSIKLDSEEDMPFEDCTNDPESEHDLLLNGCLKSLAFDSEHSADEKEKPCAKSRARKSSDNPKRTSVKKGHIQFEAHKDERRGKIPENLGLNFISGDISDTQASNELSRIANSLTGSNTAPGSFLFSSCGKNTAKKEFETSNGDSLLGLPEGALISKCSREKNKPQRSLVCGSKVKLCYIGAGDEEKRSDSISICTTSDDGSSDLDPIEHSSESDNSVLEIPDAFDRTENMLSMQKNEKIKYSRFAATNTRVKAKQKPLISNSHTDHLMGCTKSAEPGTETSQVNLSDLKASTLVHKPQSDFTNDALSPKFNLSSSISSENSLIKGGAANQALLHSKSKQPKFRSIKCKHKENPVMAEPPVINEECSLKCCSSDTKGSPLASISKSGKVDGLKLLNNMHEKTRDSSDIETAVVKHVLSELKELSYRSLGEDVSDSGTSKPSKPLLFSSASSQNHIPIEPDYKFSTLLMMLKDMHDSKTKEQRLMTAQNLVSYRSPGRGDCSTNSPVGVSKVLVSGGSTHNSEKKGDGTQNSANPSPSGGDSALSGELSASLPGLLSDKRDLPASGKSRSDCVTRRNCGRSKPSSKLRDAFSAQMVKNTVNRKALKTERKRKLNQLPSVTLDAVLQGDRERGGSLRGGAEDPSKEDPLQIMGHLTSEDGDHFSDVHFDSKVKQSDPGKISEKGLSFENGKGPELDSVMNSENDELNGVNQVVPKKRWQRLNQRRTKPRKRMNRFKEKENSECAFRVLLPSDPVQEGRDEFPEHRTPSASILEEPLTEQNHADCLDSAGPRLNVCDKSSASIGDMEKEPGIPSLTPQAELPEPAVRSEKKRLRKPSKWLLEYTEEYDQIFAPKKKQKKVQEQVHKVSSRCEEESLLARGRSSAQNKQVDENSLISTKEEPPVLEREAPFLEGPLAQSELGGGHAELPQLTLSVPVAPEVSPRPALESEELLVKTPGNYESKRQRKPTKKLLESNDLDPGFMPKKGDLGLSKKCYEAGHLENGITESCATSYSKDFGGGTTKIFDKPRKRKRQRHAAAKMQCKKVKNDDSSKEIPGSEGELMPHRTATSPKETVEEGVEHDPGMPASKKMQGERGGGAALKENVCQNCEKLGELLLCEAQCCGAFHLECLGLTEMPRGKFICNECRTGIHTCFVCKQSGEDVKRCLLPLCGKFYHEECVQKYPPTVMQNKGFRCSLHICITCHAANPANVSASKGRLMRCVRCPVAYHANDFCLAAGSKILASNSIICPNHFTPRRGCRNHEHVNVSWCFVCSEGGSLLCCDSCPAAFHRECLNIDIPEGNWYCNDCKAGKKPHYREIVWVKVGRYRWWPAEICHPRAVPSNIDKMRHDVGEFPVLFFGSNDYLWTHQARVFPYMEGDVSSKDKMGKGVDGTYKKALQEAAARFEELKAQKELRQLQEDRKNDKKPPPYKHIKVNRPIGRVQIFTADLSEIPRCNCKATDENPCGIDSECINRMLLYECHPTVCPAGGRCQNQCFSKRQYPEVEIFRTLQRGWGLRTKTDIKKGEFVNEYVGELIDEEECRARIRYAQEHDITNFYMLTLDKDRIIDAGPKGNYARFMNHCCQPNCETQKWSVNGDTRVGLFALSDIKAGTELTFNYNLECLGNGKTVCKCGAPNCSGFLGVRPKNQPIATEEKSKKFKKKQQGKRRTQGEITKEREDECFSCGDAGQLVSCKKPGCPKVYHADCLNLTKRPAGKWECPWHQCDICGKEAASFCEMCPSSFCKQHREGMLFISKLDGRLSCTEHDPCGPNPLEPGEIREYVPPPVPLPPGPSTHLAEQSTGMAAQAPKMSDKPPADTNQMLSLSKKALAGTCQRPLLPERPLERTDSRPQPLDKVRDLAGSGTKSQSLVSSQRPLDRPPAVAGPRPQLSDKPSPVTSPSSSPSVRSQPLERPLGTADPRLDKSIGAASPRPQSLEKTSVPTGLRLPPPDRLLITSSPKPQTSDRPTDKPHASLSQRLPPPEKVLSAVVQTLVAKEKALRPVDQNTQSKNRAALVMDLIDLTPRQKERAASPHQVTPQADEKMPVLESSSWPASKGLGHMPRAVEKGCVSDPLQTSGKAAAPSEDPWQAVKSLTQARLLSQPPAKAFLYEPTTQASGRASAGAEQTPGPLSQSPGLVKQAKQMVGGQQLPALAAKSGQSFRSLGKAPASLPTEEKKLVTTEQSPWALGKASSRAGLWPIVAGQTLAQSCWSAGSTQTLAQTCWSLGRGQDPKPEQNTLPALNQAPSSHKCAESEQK
Sequence of Protein cereblon/Histone-lysine N-methyltransferase, H3 lysine-36 specific (Homo sapiens) (Q96SW2 whole entry, looked up): as the sequence (Q96SW2 whole entry, looked up) above

[25] = target: T2, Protein cereblon/Eukaryotic peptide chain release factor GTP-binding subunit ERF3A (Homo sapiens); experiment: PROTAC activity at CRBN/GSPT1 in human RPMI 8402 cells assessed as decrease in GSPT1 level at 2 uM measured after 12 hrs by TMT-labeled quantitative proteomics assay; format: cell-based
[26] = system: SEM cells; experiment: Cytotoxicity against human SEM cells assessed as inhibition of cell growth at 2 uM measured after 9 days by Celltiter-glo assay; format: functional, cell-based; conditions: time 9.0 day
[27] = target: T1, Protein cereblon/Histone-lysine N-methyltransferase NSD2 (Homo sapiens); experiment: PROTAC activity at CRBN/NSD2 in human SEM cells assessed as downregulation of H3K36Me2 level at 2 uM measured after 8 hrs hrs by immunoblot analysis; format: cell-based
[28] = target: T1, Protein cereblon/Histone-lysine N-methyltransferase NSD2 (Homo sapiens); experiment: PROTAC activity at CRBN/NSD2 in human SEM cells assessed as induction of NSD2 degradation incubated for 24 hrs by immunoblot analysis; format: cell-based; conditions: dose 0.001-10 µM
[29] = target: T2, Protein cereblon/Eukaryotic peptide chain release factor GTP-binding subunit ERF3A (Homo sapiens); experiment: PROTAC activity at CRBN/GSPT1 in human RPMI 8402 cells assessed as decrease in GSPT1 level at 2 uM by immunoblot analysis; format: cell-based
[30] = target: T1, Protein cereblon/Histone-lysine N-methyltransferase NSD2 (Homo sapiens); experiment: In vivo PROTAC activity at CRBN/NSD2 in SCID mouse xenografted with human SEM cells assessed as downregulation of NSD2 level at 60 mg/kg, iv for 5 days by immunohistochemical analysis; format: functional, organism-based; conditions: time 5.0 day
[31] = target: T1, Protein cereblon/Histone-lysine N-methyltransferase NSD2 (Homo sapiens); experiment: In vivo PROTAC activity at CRBN/NSD2 in SCID mouse xenografted with human SEM cells assessed as downregulation of NSD2 level at 60 mg/kg, iv for 5 days by Western blot analysis; format: functional, organism-based; conditions: time 5.0 day

O=C1CCC(N2C(=O)c3ccc(N4CCC(NC(=O)c5ccc(NC(=O)c6ccc(CN(C(=O)c7ccc8c(c7)OCC(=O)N8)C7CC7)cc6)cc5)CC4)cc3C2=O)C(=O)N1 (stereo unspecified)
inactive: Activity [5] | Activity [7] | Activity [8] | Activity [9] | Activity [11] | Activity [13] | Activity [14] | Activity [24]
active: Activity [1] | Activity [2] | inhibition [3] | Activity [4] | Activity [6] | Activity [10] | Activity [12] | Activity [15] | Activity [16] | Activity [17] | Activity [18] | Activity [19] | Activity [20] | Activity [21] | Activity [22] | Activity [23] | Activity [25] | Activity [26] | Activity [27] | Activity [28] Dose-Dependent Effect | Activity [29] | Activity [30] | Activity [31]
